Read-outs that look alike come from different tables or passages of the source.
Key:
[1] = system: LAPC4 prostate cancer cells, which express the AKT1 E17K allele; experiment: Antiproliferative effects in LAPC4 cells (CellTiter Glo, 72 h); assay type: cell-based; settings: read-out: LAPC4 proliferation IC50: GeoMean IC50
Procedure: Antiproliferative effects in LAPC4 cells. LAPC4 prostate cancer cells (Klein, K. A. et al. Nat Med 1997, 3, 402-408), which express the AKT1 E17K allele, were grown in IMDM media (Hyclone) supplemented with 12% FBS+1% P/S. To assess compound effects on growth, 1,000 cells/well were seeded in 384 well assay plates, incubated with compound dilutions dissolved in DMSO. After 72 h, intracellular ATP content was assessed with CellTiter Glo reagent (Promega) according to the manufacturer's instructions. IC50 values were calculated by fitting luminescence values to a log(inhibitor) vs. response Hill equation.

AKT1 WT = target: T1, AKT1 WT (Homo sapiens, UniProt P31749); experiment: Live cell target engagement by NanoBRET competitive probe displacement, AKT1 WT; assay type: binding; settings: transfected HEK293 cells, 2 h at 37° C., read-out: AKT1 WT IC50: GeoMean IC50
T1 construct: expressed in transfected cells; host or cells: HEK293
T1 sequence (P31749 whole entry): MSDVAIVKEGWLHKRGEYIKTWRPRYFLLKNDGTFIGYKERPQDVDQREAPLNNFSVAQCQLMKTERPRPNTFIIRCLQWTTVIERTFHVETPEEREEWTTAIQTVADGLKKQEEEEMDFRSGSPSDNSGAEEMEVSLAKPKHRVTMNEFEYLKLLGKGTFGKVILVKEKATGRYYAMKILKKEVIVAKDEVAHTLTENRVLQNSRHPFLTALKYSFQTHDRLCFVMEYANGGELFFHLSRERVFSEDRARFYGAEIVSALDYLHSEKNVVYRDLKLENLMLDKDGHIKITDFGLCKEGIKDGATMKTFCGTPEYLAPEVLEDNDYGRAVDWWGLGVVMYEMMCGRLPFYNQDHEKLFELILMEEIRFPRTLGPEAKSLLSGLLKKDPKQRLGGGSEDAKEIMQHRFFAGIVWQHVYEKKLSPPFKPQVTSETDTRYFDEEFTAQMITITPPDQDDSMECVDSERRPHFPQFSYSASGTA
Procedure: (§1) Determining live cell AKT1 E17K, AKT1 WT, and AKT2 target engagement by NanoBRET competitive probe displacement. Live cell target engagement assays were performed as described (Vasta, J. D. et al. Cell Chem Biol 2018, 25(11), 206-214). Briefly, HEK293 cells were transfected with plasmids encoding kinase-NanoLuciferase fusion proteins overnight. Cells were then treated with serial dilutions of compound and an ˜EC50 concentration of fluorescently-tagged ATP-competitive tracer (Promega). After incubation for 2 h at 37° C., luciferase substrate and extracellular luciferase inhibitor were added to all wells, and luminescent intensity at 460 nm and 600 nm were measured on a multimode plate-reader. The ratio of E600/E460 was calculated to give the tracer engagement signal (BRET). IC50 values were calculated by fitting BRET values to a log(inhibitor) vs. response Hill equation.

AKT1 E17K = target: T2, AKT1 E17K (Homo sapiens, UniProt P31749, E17K); experiment: Live cell target engagement by NanoBRET competitive probe displacement, AKT1 E17K; assay type: binding; settings: transfected HEK293 cells, 2 h at 37° C., read-out: AKT1 E17K IC50: GeoMean IC50
T2 construct: expressed in transfected cells; host or cells: HEK293
T2 sequence (P31749 whole entry E17K): as the sequence (P31749 whole entry) above, with E17K counted along it
Procedure: as §1

AKT2 = target: T3, AKT2 (Homo sapiens, UniProt P31751); experiment: Live cell target engagement by NanoBRET competitive probe displacement, AKT2; assay type: binding; settings: transfected HEK293 cells, 2 h at 37° C., read-out: AKT2 IC50: GeoMean IC50
T3 construct: expressed in transfected cells; host or cells: HEK293
T3 sequence (P31751 whole entry): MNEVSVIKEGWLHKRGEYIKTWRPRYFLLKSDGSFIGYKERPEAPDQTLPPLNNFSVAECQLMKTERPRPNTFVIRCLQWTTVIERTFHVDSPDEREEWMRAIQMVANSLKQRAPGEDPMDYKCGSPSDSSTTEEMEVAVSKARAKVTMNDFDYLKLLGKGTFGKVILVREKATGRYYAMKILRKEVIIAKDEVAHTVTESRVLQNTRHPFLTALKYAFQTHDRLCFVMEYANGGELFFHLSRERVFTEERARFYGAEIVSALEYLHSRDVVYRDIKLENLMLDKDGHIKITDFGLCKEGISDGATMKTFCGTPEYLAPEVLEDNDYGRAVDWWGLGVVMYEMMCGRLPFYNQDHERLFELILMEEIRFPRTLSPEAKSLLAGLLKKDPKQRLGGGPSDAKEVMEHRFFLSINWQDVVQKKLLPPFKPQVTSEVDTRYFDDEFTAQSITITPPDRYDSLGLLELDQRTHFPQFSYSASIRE
Procedure: as §1

| IC50 ([1]; Homo sapiens, LAPC4, 72 h) | IC50 (AKT1 WT) | IC50 (AKT1 E17K) | IC50 (AKT2) | IC50 [1] | Structure (SMILES) |
| --- | --- | --- | --- | --- | --- |
| 0.01 to 0.1 µM | 0.01 to 0.1 µM | 0.01 to 0.1 µM | 0.1 to 2 µM |  | Nc1ncccc1-c1nc2ccc(-n3nccn3)nc2n1-c1ccc2c(c1)CC[C@@H]2NC(=O)c1cc(F)c(O)c(C=O)c1 [Example 115, N-[(1S)-5-[2-(2-aminopyridin-3-yl)-5-(1,2,3-triazol-2-yl)imidazo[4,5-b]pyridin-3-yl]-2,3-dihydro-1H-inden-1-yl]-3-fluoro-5-formyl-4-hydroxybenzamide] |
| 0.01 to 0.1 µM | 0.01 to 0.1 µM | 0.01 to 0.1 µM | 0.1 to 2 µM |  | Nc1ncccc1-c1nc2ccc(-n3ccc(F)n3)nc2n1-c1ccc2c(c1)CC[C@@H]2NC(=O)c1cc(C=O)c(O)cc1F [Example 135, N-[(1S)-5-[2-(2-aminopyridin-3-yl)-5-(3-fluoropyrazol-1-yl)imidazo[4,5-b]pyridin-3-yl]-2,3-dihydro-1H-inden-1-yl]-2-fluoro-5-formyl-4-hydroxybenzamide] |
| ≥ 2 µM | ≥ 2 µM | ≥ 2 µM | ≥ 2 µM |  | CS(=O)(=O)Nc1cc(-n2cccn2)nc2c1nc(-c1cccnc1N)n2-c1ccc2c(c1)CC[C@@H]2NC(=O)c1ccc(O)c(C=O)c1 [Example 232, N-[(1S)-5-[2-(2-aminopyridin-3-yl)-7-methanesulfonamido-5-(pyrazol-1-yl)imidazo[4,5-b]pyridin-3-yl]-2,3-dihydro-1H-inden-1-yl]-3-formyl-4-hydroxybenzamide] |
|  | 0.01 to 0.1 µM | 0.01 to 0.1 µM | 0.1 to 2 µM | 0.1 to 2 µM | Nc1ncccc1-c1nc2ccc(-n3cccn3)nc2n1-c1ccc2c(c1)CC(F)[C@@H]2NC(=O)c1ccc(O)c(C=O)c1 (single isomer, unassigned) [Example 257, N-[(1R,2S*)-5-[2-(2-aminopyridin-3-yl)-5-(pyrazol-1-yl)imidazo[4,5-b]pyridin-3-yl]-2-fluoro-2,3-dihydro-1H-inden-1-yl]-3-formyl-4-hydroxybenzamide] |
| ≥ 2 µM | 0.1 to 2 µM | ≥ 2 µM | 0.1 to 2 µM |  | CC1(NC(=O)c2ccc(O)c(C=O)c2)CCc2cc(-n3c(-c4cccnc4N)nc4ccc(-n5cccn5)nc43)ccc21 (stereo not drawn) [Example 219, N-(5-(2-(2-aminopyridin-3-yl)-5-(1H-pyrazol-1-yl)-3H-imidazo[4,5-b]pyridin-3-yl)-1-methyl-2,3-dihydro-1H-inden-1-yl)-3-formyl-4-hydroxybenzamide] |
| 0.01 to 0.1 µM | 0.01 to 0.1 µM | < 0.01 µM | 0.01 to 0.1 µM |  | Nc1ncccc1-c1nc2ccc(-c3ccn(C(F)F)n3)nc2n1-c1ccc2c(c1)CC[C@@H]2NC(=O)c1cc(C=O)c(O)c(F)c1F [Example 157, (S)—N-(5-(2-(2-aminopyridin-3-yl)-5-(1-(difluoromethyl)-1H-pyrazol-3-yl)-3H-imidazo[4,5-b]pyridin-3-yl)-2,3-dihydro-1H-inden-1-yl)-2,3-difluoro-5-formyl-4-hydroxybenzamide] |
| 0.1 to 2 µM | 0.1 to 2 µM | 0.01 to 0.1 µM | 0.1 to 2 µM |  | Nc1ncccc1-c1nc2ccc(-n3cncn3)nc2n1-c1ccc2c(c1)CC[C@@H]2NC(=O)c1ccc(O)c(C=O)c1 [Example 97, N-[(1S)-5-[2-(2-aminopyridin-3-yl)-5-(1,2,4-triazol-1-yl)imidazo[4,5-b]pyridin-3-yl]-2,3-dihydro-1H-inden-1-yl]-3-formyl-4-hydroxybenzamide] |
| 0.1 to 2 µM | 0.1 to 2 µM | 0.01 to 0.1 µM | 0.1 to 2 µM |  | Nc1ncccc1-c1nc2ccc(-n3cccn3)nc2n1-c1ccc2c(c1)CC[C@@H]2NC(=O)c1ccc(O)c(C=O)c1F [Example 255, (S)—N-(5-(2-(2-aminopyridin-3-yl)-5-(1H-pyrazol-1-yl)-3H-imidazo[4,5-b]pyridin-3-yl)-2,3-dihydro-1H-inden-1-yl)-2-fluoro-3-formyl-4-hydroxybenzamide] |
| 0.01 to 0.1 µM | 0.01 to 0.1 µM | 0.01 to 0.1 µM | 0.1 to 2 µM |  | Nc1ncccc1-c1nc2ccc(-c3nccs3)nc2n1-c1ccc2c(c1)CC[C@@H]2NC(=O)c1cc(F)c(O)c(C=O)c1 [Example 130, N-[(1S)-5-[2-(2-aminopyridin-3-yl)-5-(1,3-thiazol-2-yl)imidazo[4,5-b]pyridin-3-yl]-2,3-dihydro-1H-inden-1-yl]-3-fluoro-5-formyl-4-hydroxybenzamide] |
| 0.1 to 2 µM | 0.1 to 2 µM | 0.01 to 0.1 µM | 0.1 to 2 µM |  | Nc1ncccc1-c1nc2ccc(-c3ccccc3)nc2n1-c1ccc2c(c1)CC[C@@H]2NC(=O)c1cc(C=O)c(O)c(Cl)n1 [Example 176, (S)—N-(5-(2-(2-aminopyridin-3-yl)-5-phenyl-3H-imidazo[4,5-b]pyridin-3-yl)-2,3-dihydro-1H-inden-1-yl)-6-chloro-4-formyl-5-hydroxypicolinamide] |
| 0.1 to 2 µM | 0.1 to 2 µM | 0.01 to 0.1 µM | ≥ 2 µM |  | Nc1ncccc1-c1nc2ccc(F)nc2n1-c1ccc2c(c1)CC[C@@H]2NC(=O)c1ccc(O)c(C=O)c1 [Example 48, N-[(1S)-5-[2-(2-aminopyridin-3-yl)-5-fluoroimidazo[4,5-b]pyridin-3-yl]-2,3-dihydro-1H-inden-1-yl]-3-formyl-4-hydroxybenzamide] |
| < 0.01 µM | 0.01 to 0.1 µM | 0.01 to 0.1 µM | 0.01 to 0.1 µM |  | Nc1ncccc1-c1nc2ccc(-n3ccc(N4CCC4)n3)nc2n1-c1ccc2c(c1)CC[C@@H]2NC(=O)c1ccc(O)c(C=O)c1 [Example 156, (S)—N-(5-(2-(2-aminopyridin-3-yl)-5-(3-(azetidin-1-yl)-1H-pyrazol-1-yl)-3H-imidazo[4,5-b]pyridin-3-yl)-2,3-dihydro-1H-inden-1-yl)-3-formyl-4-hydroxybenzamide] |
| 0.1 to 2 µM | 0.1 to 2 µM | 0.01 to 0.1 µM | 0.1 to 2 µM |  | CN1CCN(c2cc(-n3cccn3)nc3c2nc(-c2cccnc2N)n3-c2ccc3c(c2)CC[C@@H]3NC(=O)c2ccc(O)c(C=O)c2)CC1 [Example 223, N-[(1S)-5-[2-(2-aminopyridin-3-yl)-7-(4-methylpiperazin-1-yl)-5-(pyrazol-1-yl)imidazo[4,5-b]pyridin-3-yl]-2,3-dihydro-1H-inden-1-yl]-3-formyl-4-hydroxybenzamide] |
| 0.1 to 2 µM | ≥ 2 µM | ≥ 2 µM | ≥ 2 µM |  | Nc1ncccc1-c1nc2ccc(-n3cccn3)nc2n1-c1ccc2c(c1)CC[C@@H]2NC(=O)c1cc(C=O)c(O)c2nccn12 [Example 169, N-[(1S)-5-[2-(2-aminopyridin-3-yl)-5-(pyrazol-1-yl)imidazo[4,5-b]pyridin-3-yl]-2,3-dihydro-1H-inden-1-yl]-7-formyl-8-hydroxyimidazo[1,2-a]pyridine-5-carboxamide] |
| 0.01 to 0.1 µM | 0.01 to 0.1 µM | 0.01 to 0.1 µM | 0.1 to 2 µM |  | Nc1ncccc1-c1nc2ccc(-c3cscn3)nc2n1-c1ccc2c(c1)CC[C@@H]2NC(=O)c1ccc(O)c(C=O)c1 [Example 88, N-[(1S)-5-[2-(2-aminopyridin-3-yl)-5-(1,3-thiazol-4-yl)imidazo[4,5-b]pyridin-3-yl]-2,3-dihydro-1H-inden-1-yl]-3-formyl-4-hydroxybenzamide] |
| 0.1 to 2 µM | 0.1 to 2 µM | 0.01 to 0.1 µM | 0.1 to 2 µM |  | Nc1ncccc1-c1nc2ccc(-n3cccn3)nc2n1-c1ccc2c(c1)CC[C@@H]2NC(=O)c1cc(C=O)c(O)c(C(F)(F)F)c1 [Example 100, N-[(1S)-5-[2-(2-aminopyridin-3-yl)-5-(pyrazol-1-yl)imidazo[4,5-b]pyridin-3-yl]-2,3-dihydro-1H-inden-1-yl]-3-formyl-4-hydroxy-5-(trifluoromethyl)benzamide] |
| 0.01 to 0.1 µM | 0.01 to 0.1 µM | 0.01 to 0.1 µM | 0.1 to 2 µM |  | Nc1ncccc1-c1nc2ccc(-c3ccccn3)nc2n1-c1ccc2c(c1)CC[C@@H]2NC(=O)c1ccc(O)c(C=O)c1 [Example 25, (S)—N-(5-(2-(2-aminopyridin-3-yl)-5-(pyridin-2-yl)-3H-imidazo[4,5-b]pyridin-3-yl)-2,3-dihydro-1H-inden-1-yl)-3-formyl-4-hydroxybenzamide] |
| 0.1 to 2 µM | 0.01 to 0.1 µM | 0.01 to 0.1 µM | 0.01 to 0.1 µM |  | CC(=O)c1cc(C(=O)N[C@H]2CCc3cc(-n4c(-c5cccnc5N)nc5ccc(-n6cccn6)nc54)ccc32)cc(C=O)c1O [Example 102, (S)-3-acetyl-N-(5-(2-(2-aminopyridin-3-yl)-5-(1H-pyrazol-1-yl)-3H-imidazo[4,5-b]pyridin-3-yl)-2,3-dihydro-1H-inden-1-yl)-5-formyl-4-hydroxybenzamide] |

Reference: patent publication US20260053834A1, “COVALENT MODIFIERS OF AKT1 AND USES THEREOF” (Terremoto Biosciences, Inc., priority 2023, published 2026)
